Assay results from PubChem BioAssay AID248 (DTP/NCI, 2004).
Several values for one entry are separate records, joined by “and”; a condition that tells them apart may be missing. Equal values may be shown once. Toxic doses and inconclusive results are not listed. Cut-off read from the data, not from the text of the source: active = T/C of 150% or more; inactive = T/C below 125%.

System: L1210 leukemia ip in BDF1 mice, survival T/C
Experiment: NCI In Vivo Anticancer Drug Screen. Data for tumor model L1210 Leukemia (intraperitoneal) in B6D2F1 (BDF1) mice
Settings: endpoint: mean survival time, higher = longer survival
In short: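 Antitumor effect is assessed in tumor-bearing animals. Survival in the compound arm is compared with a vehicle-dosed control arm and expressed as their quotient.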

[1] = dose: 25.0 mg/kg/injection, schedule: Q01DX001 (ip), vehicle: saline
[2] = dose: 50.0 mg/kg/injection, schedule: Q01DX001 (ip), vehicle: saline
[3] = dose: 100.0 mg/kg/injection, schedule: Q01DX001 (ip), vehicle: saline
[4] = dose: 100.0 mg/kg/injection, schedule: Q01DX009 (ip), vehicle: saline with Tween-80
[5] = dose: 100.0 mg/kg/injection, schedule: Q04DX003 (ip), vehicle: saline
[6] = dose: 200.0 mg/kg/injection, schedule: Q01DX009 (ip), vehicle: saline with Tween-80
[7] = dose: 400.0 mg/kg/injection, schedule: Q01DX009 (ip), vehicle: saline with Tween-80
[8] = dose: 200.0 mg/kg/injection, schedule: Q01DX001 (ip), vehicle: saline
[9] = dose: 400.0 mg/kg/injection, schedule: Q01DX001 (ip), vehicle: saline
[10] = dose: 100.0 mg/kg/injection, schedule: Q01DX009 (ip), vehicle: Klucel (hydroxypropylcellulose) (HPC)
[11] = dose: 200.0 mg/kg/injection, schedule: Q01DX009 (ip), vehicle: Klucel (hydroxypropylcellulose) (HPC)
[12] = dose: 400.0 mg/kg/injection, schedule: Q01DX009 (ip), vehicle: Klucel (hydroxypropylcellulose) (HPC)
[13] = dose: 100.0 mg/kg/injection, schedule: Q04DX003 (ip), vehicle: Klucel (hydroxypropylcellulose) (HPC)
[14] = dose: 200.0 mg/kg/injection, schedule: Q04DX003 (ip), vehicle: Klucel (hydroxypropylcellulose) (HPC)
[15] = dose: 400.0 mg/kg/injection, schedule: Q04DX003 (ip), vehicle: Klucel (hydroxypropylcellulose) (HPC)
[16] = dose: 50.0 mg/kg/injection, schedule: Q04DX003 (ip), vehicle: Klucel (hydroxypropylcellulose) (HPC)

Measured: T/C

CC[N+](CC)(CC)Cc1ccccc1 (tested in a mixture with another compound)
inactive: dose: 6.25 mg/kg/injection, schedule: Q01DX009 (ip), vehicle: saline 97 % of control | dose: 12.5 mg/kg/injection, schedule: Q01DX009 (ip), vehicle: saline 103 % of control | [1] 96 % of control | dose: 25.0 mg/kg/injection, schedule: Q01DX009 (ip), vehicle: saline 95 % of control and 108 % of control | dose: 25.0 mg/kg/injection, schedule: Q04DX003 (ip), vehicle: saline 111 % of control and 96 % of control | [2] 112 % of control | dose: 50.0 mg/kg/injection, schedule: Q04DX003 (ip), vehicle: saline 102 % of control and 104 % of control | [3] 98 % of control and 106 % of control | [4] 92 % of control | [5] 88 % of control | [6] 96 % of control | [7] 92 % of control

CCOc1ccc(NC(=S)N=Nc2c(O)[nH]c3c(Cl)cc(Cl)cc23)cc1
inactive: [5] 91 % of control | dose: 200.0 mg/kg/injection, schedule: Q04DX003 (ip), vehicle: saline 89 % of control | dose: 400.0 mg/kg/injection, schedule: Q04DX003 (ip), vehicle: saline 89 % of control

CNC(=O)Nc1cc(C)ccc1Cl
inactive: dose: 50.0 mg/kg/injection, schedule: Q01DX009 (ip), vehicle: carboxymethylcellulose (CMC) 95 % of control and 89 % of control | dose: 87.5 mg/kg/injection, schedule: Q04DX003 (ip), vehicle: carboxymethylcellulose (CMC) 101 % of control | dose: 100.0 mg/kg/injection, schedule: Q01DX001 (ip), vehicle: carboxymethylcellulose (CMC) 94 % of control | dose: 100.0 mg/kg/injection, schedule: Q04DX002 (ip), vehicle: carboxymethylcellulose (CMC) 100 % of control and 117 % of control | dose: 175.0 mg/kg/injection, schedule: Q04DX003 (ip), vehicle: carboxymethylcellulose (CMC) 93 % of control | dose: 200.0 mg/kg/injection, schedule: Q01DX001 (ip), vehicle: carboxymethylcellulose (CMC) 92 % of control | dose: 200.0 mg/kg/injection, schedule: Q04DX002 (ip), vehicle: carboxymethylcellulose (CMC) 100 % of control and 102 % of control | dose: 350.0 mg/kg/injection, schedule: Q04DX003 (ip), vehicle: carboxymethylcellulose (CMC) 104 % of control | dose: 400.0 mg/kg/injection, schedule: Q01DX001 (ip), vehicle: carboxymethylcellulose (CMC) 94 % of control | dose: 400.0 mg/kg/injection, schedule: Q01DX009 (ip), vehicle: carboxymethylcellulose (CMC) 93 % of control | dose: 400.0 mg/kg/injection, schedule: Q04DX002 (ip), vehicle: carboxymethylcellulose (CMC) 93 % of control and 96 % of control

COc1cc2nccc3c4ccccc4n(c1=O)c23
inactive: [2] 97 % of control | [3] 101 % of control | [8] 101 % of control | [9] 97 % of control

CCOC(=O)c1ccc(NC(=O)Nc2cc(Cl)c(OC)cc2OC)cc1
inactive: [10] 98 % of control | [11] 95 % of control | [12] 105 % of control

CCCCCCCCCCCCCCCC(=O)CCCCCCCCCCCCCCC
inactive: dose: 100.0 mg/kg/injection, schedule: Q01DX001 (ip), vehicle: other 94 % of control | dose: 200.0 mg/kg/injection, schedule: Q01DX001 (ip), vehicle: other 100 % of control | dose: 400.0 mg/kg/injection, schedule: Q01DX001 (ip), vehicle: other 97 % of control

CCCC(=O)Nc1cc(OC)ccc1OC
inactive: [10] 106 % of control | [11] 97 % of control

Nc1nc(SCc2ccccc2)cc(C(=O)O)n1
inactive: dose: 25.0 mg/kg/injection, schedule: Q01DX Z (ip), vehicle: methylcellulose (MC) 92 % of control | dose: 50.0 mg/kg/injection, schedule: Q01DX Z (ip), vehicle: methylcellulose (MC) 101 % of control

C/C(=N/OC(=O)N(C)C)c1cccs1
inactive: dose: 5.0 mg/kg/injection, schedule: Q01DX001 (ip), vehicle: other 103 % of control | dose: 10.0 mg/kg/injection, schedule: Q01DX001 (ip), vehicle: other 94 % of control | dose: 20.0 mg/kg/injection, schedule: Q01DX001 (ip), vehicle: other 97 % of control | dose: 40.0 mg/kg/injection, schedule: Q01DX001 (ip), vehicle: other 92 % of control

O=c1[nH]cn[nH]1
inactive: dose: 100.0 mg/kg/injection, schedule: Q04DX003 (ip), vehicle: saline sonified 105 % of control | dose: 200.0 mg/kg/injection, schedule: Q04DX003 (ip), vehicle: saline sonified 114 % of control | dose: 400.0 mg/kg/injection, schedule: Q04DX003 (ip), vehicle: saline sonified 101 % of control

COC(=O)C1C2C=CC(C2)C1C(=O)O (stereo unspecified)
inactive: [10] 103 % of control | [4] 92 % of control | [13] 98 % of control | [11] 92 % of control | [6] 86 % of control | [14] 97 % of control | [12] 88 % of control | [7] 87 % of control | [15] 97 % of control

CCCCN(C)N=Nc1ccc(OCC(=O)NN)cc1
inactive: dose: 10.0 mg/kg/injection, schedule: Q01DX Z (ip), vehicle: carboxymethylcellulose (CMC) 93 % of control | dose: 15.0 mg/kg/injection, schedule: Q01DX Z (ip), vehicle: carboxymethylcellulose (CMC) 96 % of control | dose: 20.0 mg/kg/injection, schedule: Q01DX Z (ip), vehicle: carboxymethylcellulose (CMC) 91 % of control | dose: 30.0 mg/kg/injection, schedule: Q01DX Z (ip), vehicle: carboxymethylcellulose (CMC) 114 % of control | dose: 60.0 mg/kg/injection, schedule: Q01DX Z (ip), vehicle: carboxymethylcellulose (CMC) 95 % of control

[Cl][Sn]([Cl])([c]1ccccc1)[c]1ccccc1
inactive: dose: 12.5 mg/kg/injection, schedule: Q01DX001 (ip), vehicle: saline 108 % of control | [1] 96 % of control | [2] 100 % of control

CN(C)C1(C)CCC2C3CCC4=CC(=O)CCC4(C)C3CCC21C (stereo unspecified)
inactive: dose: 50.0 mg/kg/injection, schedule: Q01DX001 (sc), vehicle: steriod suspending solution 98 % of control | dose: 100.0 mg/kg/injection, schedule: Q01DX001 (sc), vehicle: steriod suspending solution 98 % of control | dose: 200.0 mg/kg/injection, schedule: Q01DX001 (sc), vehicle: steriod suspending solution 95 % of control | dose: 400.0 mg/kg/injection, schedule: Q01DX001 (sc), vehicle: steriod suspending solution 98 % of control

O=[N+]([O-])c1cc(CCl)ccc1CCl
inactive: [16] 86 % of control | [13] 92 % of control | [14] 98 % of control

COC(=O)c1nn2c(=O)c3cccc4cccc(c43)c2c1C(=O)OC
inactive: [10] 95 % of control | [11] 98 % of control | [12] 100 % of control

Nc1ccc(S(=O)(=O)C(Cl)c2ccccc2)cc1 (stereo unspecified)
inactive: [3] 104 % of control | [8] 102 % of control | [9] 104 % of control

CC1C(c2ccccc2)N1C(=O)Nc1ccccc1 (stereo unspecified)
inactive: dose: 100.0 mg/kg/injection, schedule: Q01DX001 (ip), vehicle: Klucel (hydroxypropylcellulose) (HPC) 93 % of control | dose: 200.0 mg/kg/injection, schedule: Q01DX001 (ip), vehicle: Klucel (hydroxypropylcellulose) (HPC) 96 % of control | dose: 400.0 mg/kg/injection, schedule: Q01DX001 (ip), vehicle: Klucel (hydroxypropylcellulose) (HPC) 98 % of control

O=C(Nc1cccc(C(F)(F)F)c1)C(c1ccccc1)c1ccccc1
inactive: [16] 98 % of control | [10] 100 % of control | [13] 110 % of control | [11] 100 % of control | [14] 93 % of control | [15] 101 % of control
